# Values joined by “and” are separate entries in the source; they are usually repeats but may differ in a detail not shown here. Equal values may be shown once. Read-outs that look alike come from different tables or passages of the source.
# What was measured:
# [1] = molecular target: T1, CDK12–cyclin K and DDB1 (Homo sapiens, UniProt Q16531+Q9NYV4, K965R); test: TR-FRET ternary complex formation assay (compound titration); assay type: binding; details: for TR-FRET signal at compound concentration: replicate titrations
# T1 construct: His6–CDK12 (a.a. 713–1,052); full-length or beta-propeller B domain deletion (ΔBPB: a.a. 396–705 deleted) constructs of His6–DDB1ΔBPB, StrepII–Avi–DDB1, or His6–Spy–DDB1; made in house; host or cells: Trichoplusia ni High Five insect cells (baculovirus)
# Source text: A 70 μs delay was employed to reduce background fluorescence. The TR-FRET signal was obtained through calculating the ratio of 520 nm to 490 nm fluorescence, and Prism 9 (GraphPad) was used for further data analysis.
# [2] = test system: cyclin K–eGFP degradation reporter; test: Cyclin K reporter stability analysis (dual-color cyclin K–eGFP reporter); assay type: cell-based, human; details: Supplementary Table 2; HEK293T cycK-eGFP reporter, 5 h; read-out: Cellular assays DC50
# Method: HEK293T–Cas9 cells expressing the cyclin K–eGFP degradation reporter were resuspended at 1 × 10^6 ml^−1 and 50 µl of cell suspension was seeded in non-cell-culture-treated 384-well plates. Shortly after, cells were treated with drug or DMSO for 5 h. […] The fluorescent signal was quantified by flow cytometry (LSRFortessa flow cytometer, BD Biosciences). Using FlowJo (flow cytometry analysis software, BD Biosciences), the geometric mean of the eGFP and mCherry fluorescent signal for round and mCherry-positive cells was calculated. The ratio of eGFP to mCherry was normalized to the average of three DMSO-treated controls.
# [3] = test system: HEK293T cells; test: Drug sensitivity assay (CellTiter-Glo viability) with or without MLN4924 pretreatment; assay type: cell-based, human; details: Supplementary Table 2; for EC50: Homo sapiens, HEK-293T, HEK293T viability, 72 h, compound alone, read-out: Cellular assays EC50; for Toxicity rescue: MLN4924-mediated cytotoxicity rescue, 10 µM used where n.d.
# Method: HEK293T–Cas9 cells were resuspended at 0.15 × 10^6 ml^−1 treated with DMSO or 100 nM MLN4924 and plated on 384-well plates. After 2 h, the indicated drugs were dispensed with a D300 digital dispenser (Tecan). After 3 days of drug exposure, cell viability was assessed using the CellTiter-Glo luminescent assay (Promega, G7572) on an CLARIOstar Plus, MARS 3.4 (BMG LabTech). Cell viabilities were calculated relative to DMSO controls.
# [4] = compound concentration 0.468 nM
# [5] = compound concentration 7.92001 nM
# [6] = compound concentration 15.84 nM
# [7] = compound concentration 30.96 nM
# [8] = compound concentration 62.6401 nM
# [9] = compound concentration 125.28 nM
# [10] = compound concentration 244.8 nM
# [11] = compound concentration 993.601 nM
# [12] = compound concentration 2001.6 nM
# T1 sequence (Q9NYV4 713-1052 K965R): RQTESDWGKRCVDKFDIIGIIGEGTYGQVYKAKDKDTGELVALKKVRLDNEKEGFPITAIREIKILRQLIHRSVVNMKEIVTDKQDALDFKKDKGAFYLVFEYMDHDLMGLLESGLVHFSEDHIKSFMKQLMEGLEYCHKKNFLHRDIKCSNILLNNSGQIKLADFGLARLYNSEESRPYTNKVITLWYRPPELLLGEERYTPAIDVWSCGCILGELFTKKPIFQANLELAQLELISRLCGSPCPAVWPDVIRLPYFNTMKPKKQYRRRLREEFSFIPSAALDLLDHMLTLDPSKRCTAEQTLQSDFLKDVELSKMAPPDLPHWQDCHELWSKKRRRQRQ
# T1 sequence (O75909 1-267 partner): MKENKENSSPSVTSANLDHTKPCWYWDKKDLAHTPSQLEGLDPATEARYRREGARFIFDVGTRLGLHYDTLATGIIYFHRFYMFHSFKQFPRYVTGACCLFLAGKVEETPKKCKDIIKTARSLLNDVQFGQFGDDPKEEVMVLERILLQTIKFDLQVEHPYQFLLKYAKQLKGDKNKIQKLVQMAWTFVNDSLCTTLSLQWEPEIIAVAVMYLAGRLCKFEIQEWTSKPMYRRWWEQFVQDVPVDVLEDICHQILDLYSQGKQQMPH
# T1 sequence (Q16531 whole entry): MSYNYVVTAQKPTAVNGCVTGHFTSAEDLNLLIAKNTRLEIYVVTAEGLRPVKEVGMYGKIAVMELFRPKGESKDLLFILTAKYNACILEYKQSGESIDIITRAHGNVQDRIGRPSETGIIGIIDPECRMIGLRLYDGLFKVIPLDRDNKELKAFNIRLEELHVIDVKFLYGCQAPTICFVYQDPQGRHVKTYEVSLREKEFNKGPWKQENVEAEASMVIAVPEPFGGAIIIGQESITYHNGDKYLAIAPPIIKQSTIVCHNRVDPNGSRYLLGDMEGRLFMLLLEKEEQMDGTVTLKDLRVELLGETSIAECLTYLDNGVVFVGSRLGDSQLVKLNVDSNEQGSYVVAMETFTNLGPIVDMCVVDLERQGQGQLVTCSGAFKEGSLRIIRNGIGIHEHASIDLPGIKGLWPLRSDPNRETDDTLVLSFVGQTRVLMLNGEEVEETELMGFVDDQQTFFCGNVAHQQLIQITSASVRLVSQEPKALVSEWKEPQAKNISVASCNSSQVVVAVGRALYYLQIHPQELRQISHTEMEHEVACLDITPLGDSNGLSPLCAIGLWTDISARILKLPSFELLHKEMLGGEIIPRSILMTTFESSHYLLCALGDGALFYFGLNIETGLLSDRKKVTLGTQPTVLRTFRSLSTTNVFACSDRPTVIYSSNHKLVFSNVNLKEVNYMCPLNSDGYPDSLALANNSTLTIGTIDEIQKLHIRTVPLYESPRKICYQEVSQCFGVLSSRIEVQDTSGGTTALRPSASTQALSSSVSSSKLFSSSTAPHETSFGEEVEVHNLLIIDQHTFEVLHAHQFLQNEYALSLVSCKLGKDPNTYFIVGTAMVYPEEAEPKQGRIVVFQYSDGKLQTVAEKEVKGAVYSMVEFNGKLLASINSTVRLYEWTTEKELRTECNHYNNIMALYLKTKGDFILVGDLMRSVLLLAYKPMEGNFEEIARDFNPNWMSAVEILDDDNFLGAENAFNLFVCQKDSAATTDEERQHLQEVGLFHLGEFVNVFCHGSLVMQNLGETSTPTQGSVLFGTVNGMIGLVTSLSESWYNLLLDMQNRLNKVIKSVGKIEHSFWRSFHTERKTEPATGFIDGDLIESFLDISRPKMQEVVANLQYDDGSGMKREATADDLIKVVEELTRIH
smiles,measurement,setting,value
"CN(C)C/C=C/C(=O)Nc1ccc(C(=O)N2CCC[C@@H](Nc3ncc(Cl)c(-c4c[nH]c5ccccc45)n3)C2)cc1 [THZ531, reference compound]",TR-FRET signal at compound concentration 4.68 nM,"[1]; compound concentration 4.68 nM, raw replicate titration data",0.1294 and 0.1297
same,TR-FRET signal at compound concentration 21.6 nM,"[1]; compound concentration 21.6 nM, raw replicate titration data",0.1203 and 0.1454
same,TR-FRET signal at compound concentration 36 nM,"[1]; compound concentration 36 nM, raw replicate titration data",0.1008 and 0.09563
same,TR-FRET signal at compound concentration 79.2001 nM,"[1]; compound concentration 79.2001 nM, raw replicate titration data",0.09205 and 0.08033
same,TR-FRET signal at compound concentration 158.4 nM,"[1]; compound concentration 158.4 nM, raw replicate titration data",0.08734 and 0.07305
same,TR-FRET signal at compound concentration 309.6 nM,"[1]; compound concentration 309.6 nM, raw replicate titration data",0.08584 and 0.06932
same,TR-FRET signal at compound concentration 626.401 nM,"[1]; compound concentration 626.401 nM, raw replicate titration data",0.07997 and 0.06847
same,TR-FRET signal at compound concentration 1252.8 nM,"[1]; compound concentration 1252.8 nM, raw replicate titration data",0.0797 and 0.06911
same,TR-FRET signal at compound concentration 2448 nM,"[1]; compound concentration 2448 nM, raw replicate titration data",0.07318 and 0.06928
same,TR-FRET signal at compound concentration 9936.01 nM,"[1]; compound concentration 9936.01 nM, raw replicate titration data",0.07478 and 0.06588
same,TR-FRET signal at compound concentration 20016 nM,"[1]; compound concentration 20016 nM, raw replicate titration data",0.07606 and 0.06434
same,DC50,[2],> 10 µM
same,EC50,[3],271 nM
same,Toxicity rescue,[3],-22%
CC[C@H](CO)Nc1nc(NCCCc2ccccc2)c2ncn(C(C)C)c2n1 [DS11],EC50,"[1]; Supplementary Table 2, read-out: TR-FRET EC50 TR-FRET",56.8 nM
same,TR-FRET signal,[1]; [4],0.241 and 0.2489
same,"TR-FRET signal, individual replicate",[1]; [4],0.241 and 0.2489
same,TR-FRET signal at compound concentration,[1]; [4],0.241 and 0.2489
same,TR-FRET signal,[1]; compound concentration 2.16 nM,0.2983 and 0.2991
same,"TR-FRET signal, individual replicate",[1]; compound concentration 2.16 nM,0.2983 and 0.2991
same,TR-FRET signal at compound concentration,[1]; compound concentration 2.16 nM,0.2983 and 0.2991
same,TR-FRET signal,[1]; compound concentration 3.6 nM,0.374 and 0.3698
same,"TR-FRET signal, individual replicate",[1]; compound concentration 3.6 nM,0.374 and 0.3698
same,TR-FRET signal at compound concentration,[1]; compound concentration 3.6 nM,0.374 and 0.3698
same,TR-FRET signal,[1]; [5],0.5495 and 0.5492
same,"TR-FRET signal, individual replicate",[1]; [5],0.5495 and 0.5492
same,TR-FRET signal at compound concentration,[1]; [5],0.5495 and 0.5492
same,TR-FRET signal,[1]; [6],0.8302 and 0.8222
same,"TR-FRET signal, individual replicate",[1]; [6],0.8302 and 0.8222
same,TR-FRET signal at compound concentration,[1]; [6],0.8302 and 0.8222
same,TR-FRET signal,[1]; [7],1.2679 and 1.278
same,"TR-FRET signal, individual replicate",[1]; [7],1.2679 and 1.278
same,TR-FRET signal at compound concentration,[1]; [7],1.2679 and 1.278
same,TR-FRET signal,[1]; [8],1.798 and 1.8918
same,"TR-FRET signal, individual replicate",[1]; [8],1.798 and 1.8918
same,TR-FRET signal at compound concentration,[1]; [8],1.798 and 1.8918
same,TR-FRET signal,[1]; [9],2.382 and 2.496
same,"TR-FRET signal, individual replicate",[1]; [9],2.382 and 2.496
same,TR-FRET signal at compound concentration,[1]; [9],2.382 and 2.496
same,TR-FRET signal,[1]; [10],2.742 and 2.9079
same,"TR-FRET signal, individual replicate",[1]; [10],2.742 and 2.9079
same,TR-FRET signal at compound concentration,[1]; [10],2.742 and 2.9079
same,TR-FRET signal,[1]; [11],3.1224 and 3.3313
same,"TR-FRET signal, individual replicate",[1]; [11],3.1224 and 3.3313
same,TR-FRET signal at compound concentration,[1]; [11],3.1224 and 3.3313
same,TR-FRET signal,[1]; [12],3.176 and 3.283
same,"TR-FRET signal, individual replicate",[1]; [12],3.176 and 3.283
same,TR-FRET signal at compound concentration,[1]; [12],3.176 and 3.283
same,EC50,"[1]; in vitro complex formation, 50 nM CDK12–cyclin K, 100 nM DDB1, text and figures, read-out: TR-FRET EC50",57 ± 3 nM
same,EC50,"[1]; sheet MOESM7, read-out: log TR-FRET EC50 (converted)",56.8 nM
same,DC50,[2],> 10 µM
same,EC50,[3],> 10000 nM
same,Toxicity rescue,[3],0%
